Experimental data taken from ChEMBL document CHEMBL1157405, “ent-Kaurane diterpenoids from Isodon japonicus” (J Nat Prod, 2008).

Test system: RAW264.7
Experiment: Inhibition of LPS-induced nitric oxide production in mouse RAW264.7 cells assessed as nitrite formation
Format: functional, cell-based

SMILES | IC50
C=C1C(=O)[C@]23C[C@H]1C[C@@H](OC(C)=O)[C@H]2[C@@]12CO[C@@]3(O)[C@@H](O)[C@@H]1[C@](C)(COC(C)=O)CC[C@@H]2O | 10.2 µM
C=C1C(=O)[C@]23[C@@H](O)[C@H]1CC[C@H]2[C@@]12COC3(O)C[C@@H]1C(C)(C)CC[C@@H]2O | 8.5 µM
C=C1C(=O)[C@@]23[C@H](O)C[C@@H]4C(C)(C)CC[C@H](O)[C@@]4(C)[C@@H]2C[C@H](OC(C)=O)[C@@H]1[C@H]3O [EXCISANIN B] | 3.3 µM
C=C1C(=O)[C@]23[C@H](O)[C@H]1CC[C@H]2[C@@]12CO[C@@]3(O)[C@@H](O)[C@@H]1C(C)(C)CC[C@@H]2OC(C)=O [LASIOKAURIN] | 1.6 µM
C=C1C(=O)[C@]23[C@H](O)[C@H]1CC[C@H]2[C@]12CCC[C@@](C)(COC(C)=O)[C@H]1[C@H](O)[C@]3(O)OC2 [LONGIKAURIN B] | 0.9 µM
C=C1C(=O)[C@]23C[C@H]1CC[C@H]2[C@]12CCC[C@@](C)(COC(C)=O)[C@H]1[C@H](O)[C@]3(O)OC2 [LONGIKAURIN C] | 1 µM
C=C1C(=O)[C@]23C[C@H]1C[C@@H](O)[C@H]2[C@]12CCC[C@@](C)(COC(C)=O)[C@H]1[C@H](O)[C@]3(O)OC2 [LONGIKAURIN D] | 2 µM
C=C1C(=O)[C@@]23[C@H](O)C[C@@H]4C(C)(C)[C@@H](OC(C)=O)CC[C@@]4(C)[C@@H]2CC(=O)[C@@H]1[C@H]3O [PSEURATA C] | 5.4 µM

Further lines, results first:

IC50 | SMILES
5.9 µM | C=C1C(=O)[C@]23C[C@H]1CC[C@H]2[C@@]12CO[C@@]3(O)[C@@H](O)[C@@H]1[C@](C)(COC(C)=O)CC[C@@H]2O
8.2 µM | C=C1C(=O)[C@]23C[C@H]1CC[C@H]2[C@]1(COC3=O)[C@@H](OC(C)=O)CC[C@@](C)(COC(C)=O)[C@H]1CO
8.7 µM | C=C1C(=O)[C@]23C[C@H]1CC[C@H]2[C@]1(COC3=O)[C@@H](OC(C)=O)CC[C@@](C)(CO)[C@H]1COC(C)=O
20.3 µM | C=C1C(=O)[C@]23C[C@H]1CC[C@H]2[C@]1(COC3=O)[C@@H](OC(C)=O)CC[C@@](C)(COC(C)=O)[C@H]1C=O
3.3 µM | C=C1C(=O)[C@]23C[C@H]1CC[C@H]2[C@@]12CO[C@]3(O)[C@@H](O)[C@@H]1[C@](C)(COC(C)=O)CC[C@@H]2OC(C)=O [EFFUSANIN D]
6.3 µM | C=C1C(=O)[C@]23[C@H](O)[C@H]1CC[C@H]2[C@@]12CO[C@@]3(O)[C@@H](O)[C@@H]1[C@](C)(COC(C)=O)CC[C@@H]2OC(C)=O [ISODOJAPONIN A]
24.2 µM | C=C1C(=O)[C@]23C[C@H]1C[C@@H](O)[C@H]2[C@]1(COC3=O)[C@@H](OC(C)=O)CC[C@@](C)(COC(C)=O)[C@H]1C=O [LOXOTHYRIN A]
